In US20170307590A1, “INHIBITORS OF MALARIAL AND HUMAN GLUCOSE TRANSPORTERS AND METHODS FOR IDENTIFYING THE INHIBITORS” (Washington University in St. Louis, priority 2016, published 2017):
Like-named read-outs stand apart in the source and are kept apart here.

Assays:
PfHT [1] = target: T1, PfHT (Plasmodium falciparum, UniProt O97467); experiment: Heterologous FRET glucose sensor screening assay in PfHT-FLIP HEK293 cells; type: cell-based; conditions: for inhibition at 10 µM: HEK293, FRET ratio, vehicle 100%, 200 μM CB 0%
T1 construct: endogenous in cells; host or cells: P. falciparum 3D7 parasites freed from human erythrocytes
T1 sequence (O97467 1-504): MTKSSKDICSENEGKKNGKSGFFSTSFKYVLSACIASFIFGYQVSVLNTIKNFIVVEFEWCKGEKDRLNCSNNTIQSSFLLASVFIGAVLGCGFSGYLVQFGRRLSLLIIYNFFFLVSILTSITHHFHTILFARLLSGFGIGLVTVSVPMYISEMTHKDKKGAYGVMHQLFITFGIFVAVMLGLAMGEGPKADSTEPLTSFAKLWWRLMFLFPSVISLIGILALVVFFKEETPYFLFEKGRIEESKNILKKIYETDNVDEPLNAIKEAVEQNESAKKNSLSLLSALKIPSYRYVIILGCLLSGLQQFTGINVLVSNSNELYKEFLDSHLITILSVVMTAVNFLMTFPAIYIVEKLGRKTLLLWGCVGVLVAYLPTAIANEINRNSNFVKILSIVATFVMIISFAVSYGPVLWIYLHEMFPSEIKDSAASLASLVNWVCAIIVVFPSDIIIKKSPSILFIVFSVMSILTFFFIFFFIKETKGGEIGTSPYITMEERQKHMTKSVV
From the text: HEK293 cells were transfected with pcDNA3.1 FLII12Pglu-700uDelta6 (Addgene, Cambridge, Mass.), containing the FRET glucose sensor (HEK293-FLIP) using Optifect Reagent (Life Technologies, Waltham, Mass.) according to manufacturer's specifications. Cells that stably integrated the gene were selected using G418 (Sigma Aldrich, St. Louis, Mo.) and highest expressers were identified using Fluorescence Activated Cell Sorting (FACS). These cells were then stably transfected with PfHT, human GLUT1 (hGLUT1), human GLUT2 (hGLUT2), human GLUT3 (hGLUT3) or human GLUT4 (hGLUT4) DNA in the pcDNA 3.1(−) hygro plasmid (Life Technologies). Single clones were selected by comparing their ability to transport radiolabeled glucose. In all cell lines except for HEK293 overexpressing hGLUT1 cells, native hGLUT1 was knocked down using shRNA.
96-well plates were pretreated with 25 μg/ml Polyethylenimine (PEI, 750 kDa, Sigma Aldrich) solution containing 150 mM NaCl to maintain cell adhesion during washing steps. After 20 min incubation at room temperature (RT), PEI was aspirated and wells were air dried for 5 min. PfHT-FLIP cells were plated 48 h prior to the assay in black opaque 96-well plates (Greiner Bio-One, Monroe, N.C.), which were previously treated with PEI, at 30,000 cells/well. After cell plating, plates were then left in the sterile hood at RT for 45 min before transfer to the incubator to reduce edge effects. Compound screening was performed using the integrated and automated screening system (Beckman Coulter, Brea, Calif.) at the Washington University High Throughput Screening Core. SAMI EX software (Beckman Coulter) was used to design and execute the screening protocol. The Malaria Box (Medicines for Malaria Venture, Geneva, Switzerland) compound library was prediluted in glucose-free HEPES buffered saline solution (HBSS) (146 mM NaCl, 4.7 mM KCl, 0.6 mM MgSO4, 1.6 mM NaHCO3, 0.13 mM NaH2PO4, 2.5 mM CaCl2, 20 mM HEPES, pH 7.3) using the BiomekFX liquid handler (Beckman Coulter). A 1:100 dilution of 1 mM stock solution was prepared for 10 μM final concentration.
To initiate the screening assay, cells were washed twice with 150 μl HBSS per well using the ELx405 Plate Washer (Biotek, Winooski, Vt.). Cells were starved in HBSS for 30 min at RT, followed by aspiration of the HBSS from cell plates using the ELx405 Plate Washer. Cells were treated with 45 μl of diluted compound using the BiomekFX (with 3 replicate cell plates for each library plate) and incubated for 6 min at RT. To initiate the uptake, 5 μl of 100 mM glucose was added to the wells (final concentration 10 mM) using a Multidrop384 dispenser (Thermo Fisher Scientific, Waltham, Mass.). After incubation at RT for 120 min, fluorescence was measured using the 2102 EnVision Multilabel Plate Reader (Perkin Elmer, Waltham, Mass.) at excitation 436 nm (CFP) and emissions 485 nm (CFP) and 535 nm (YFP).
The Malaria Box was screened at 10 μM drug concentrations in triplicate and selected hits that decreased the FRET ratio by more than 30% with vehicle-treated cells set to 100% and cells treated with 200 μM CB set to 0%. Since fluorescent compounds have the potential to generate false positive hits, the FRET ratio of compounds without cells present was determined. After false positive elimination, 5 compounds were identified as primary hits. Hit confirmation was ascertained by determining the IC50 for glucose uptake into isolated P. falciparum parasites from blood culture using radiolabeled D-glucose. […] Compound MMV020548 was included for comparison as it was previously identified from the same library. The similar IC50 observed in the freed parasite glucose uptake assay and in vitro growth inhibition assay for MMV009085, was consistent with the interpretation that this compound is acting through PfHT blockage to inhibit parasite growth (Table 3) although, alternative targets in the parasite might be inhibited as well.

P. falciparum strain 3D7 = experiment: P. falciparum growth inhibition assay (PicoGreen DNA content); type: cell-based; conditions: Plasmodium falciparum; for EC50: intraerythrocytic forms, strain 3D7
Method: P. falciparum strain 3D7 was obtained from the Malaria Research and Reference Reagent Resource Center (MR4). P. falciparum parasites were cultured in a 2% suspension of human erythrocytes and RPMI 1640 (Sigma Aldrich) medium supplemented with 27 mM sodium bicarbonate, 11 mM glucose, 5 mM HEPES, 1 mM sodium pyruvate, 0.37 mM hypoxanthine, 0.01 mM thymidine, 10 μg/ml gentamicin, and 0.5% Albumax (Gibco, Waltham, Mass.) at 37° C., 5% O2/5% CO2/90% N2 atmosphere.
Asynchronous P. falciparum cultures were diluted to 1% parasitemia and were treated with compounds at concentrations ranging from 9.8 nM-20 μM. Growth inhibition assays were performed in 100 μl cultures in opaque 96-well plates. Parasite growth was quantified after 3 days by measuring DNA content using PicoGreen (Life Technologies). Fluorescence was measured by a FLUOstar Omega microplate reader (BMG Labtech, Cary, N.C.) at 485 nm excitation and 528 nm emission. IC50 values were calculated by nonlinear regression analysis using GraphPad Prism software.

P. falciparum = conditions: values provided with the malaria box; read-out: EC50 for P. falciparum growth inhibition Malaria box; cited from earlier work
PfHT [2] = target: T1, PfHT; experiment: Uptake of [14C]-2-DOG into isolated (freed) P. falciparum parasites; type: cell-based
Method: P. falciparum strain 3D7 was cultured in 100 mm tissue culture dishes (Techno Plastic Products, Trasadingen Switzerland) in a 2% suspension of human erythrocytes and RPMI 1640 medium until reaching >5% parasitemia. Cells were pelleted via centrifugation and resuspended in RPMI. To determine the uptake of radiolabeled glucose into the parasite, it was isolated from the erythrocyte while removing uninfected erythrocytes. Uptake of [^14C]-2-DOG into isolated parasites was determined at RT using the methods described previously(19). Test compounds were added 5 min prior to the addition of [^14C]-2-DOG (0.2 μCi/ml final concentration). Uptake was quenched after 2 min Data were fit by nonlinear regression analysis using GraphPad Prism software. Uptake of [^3H]-2-DOG into HEK293-FLIP cell lines was measured in HEPES-buffered saline at RT for 4 min Data were fit by nonlinear regression analysis using GraphPad Prism software.

[3] = test system: human insulin-responsive glucose transporter GLUT4; conditions: cited from earlier work
parasites = conditions: cited from earlier work
PfHT [4] = target: T1, PfHT; conditions: cited from earlier work
hGLUTs 1-4 = experiment: Uptake of [3H]-2-DOG by HEK293 cells overexpressing PfHT or hGLUTs 1-4; type: cell-based, human
Method: To establish selectivity of these hits for PfHT over human orthologues, the inhibition of GLUTs 1, 2, 3 and 4 was cross-validated by the confirmed hits. […] The inhibitory effect of the five confirmed hits was determined on all four human class I GLUTs at the IC50 concentration for PfHT-mediated glucose uptake inhibition.

PfHT [5] = target: T1, PfHT; experiment: Glucose uptake into PfHT overexpressing L. mexicana parasites (Ortiz et al.); type: cell-based
[6] = 72 h, P. falciparum strain 3D7, growth after 3 days, read-out: IC50 3D7 in vitro
[7] = IC50 PfHT in parasites, Table 1
[8] = IC50 for glucose uptake in freed parasites, from dose-response curves of FIG. 4
[9] = PfHT overexpressing L. mexicana, read-out: IC50 PfHT (determined by Ortiz et al. (15) in L. mexicana)

Row | SMILES | inhibition at 10 µM (PfHT [1]) [%] | IC50 (P. falciparum strain 3D7; [6]) [nM] | EC50 (P. falciparum strain 3D7) [nM] | EC50 (P. falciparum) [nM] | IC50 (PfHT [2]; [7]) [µM] | IC50 (PfHT [2]; [8]) [µM] | glucose uptake versus proline transport in PfHT-overexpressing Leishmania mexicana (PfHT [4]) | other results
1 | COc1cc(C(=O)Nc2ccc(-c3nc4ccccc4[nH]3)cc2)cc(OC)c1OC [MMV665898] | 64 | 487 | 487 | 1220 | 6.2 | 5.3 | – | –
2 | CN(C)c1ccc(C(O)(c2ccc(N(C)C)cc2)c2ccc(N(C)C)cc2)cc1 [MMV665941] | 31 | 26 | 26 | 255 | 13.3 | 19.6 | – | inhibition of glucose uptake at the highest concentration tested (PfHT [2]; FIG. 4): only partial inhibition
3 | C=C1[C@@H](C)[C@H]2[C@H](Cc3ccccc3)NC(=O)[C@]23OC(=O)/C=C/[C@H](O)CCC[C@@H](C)C/C=C/[C@H]3[C@@H]1O [CB, cytochalasin B, reference compound] | – | – | – | – | – | – | – | maximal decrease in FRET ratio (PfHT [1]; 50 μM, PfHT-FLIP cells): 75%; inhibition of D-glucose uptake (PfHT [1]; 200 μM, PfHT-FLIP cells): complete inhibition
4 | Cc1cccc(C)c1OCC(=O)N[C@@H](Cc1ccccc1)[C@@H](O)C[C@H](Cc1ccccc1)NC(=O)[C@H](C(C)C)N1CCCNC1=O [lopinavir] | – | – | – | – | – | – | – | FRET ratio with addition of D-glucose (PfHT [1]; PfHT-FLIP cells, FIG. 2a): decreased FRET ratio; selectivity GLUT4 over PfHT [3]: higher selectivity for the human insulin-responsive glucose transporter GLUT4 over PfHT; IC50 (parasites): 16 µM
5 | CCN1CCN(Cc2ccc(NC(=O)c3cc4ccc5cccnc5c4[nH]3)cc2)CC1 [MMV020548] | 21 | 114 | 114 | 361 | 21.3 | 15.5 | selectively inhibit glucose uptake, but not proline transport | IC50 (PfHT [4]; [9]): 3500 nM
6 | O=C1c2ccc3c4c(ccc(c24)C(=O)N1CCCCO)C(=O)N(CCCCO)C3=O [MMV009085] | 87 | 987 | 987 | 795 | 1.8 | – | selectively inhibit glucose uptake, but not proline transport | selectivity for PfHT over human orthologues (IC50s for glucose uptake inhibition) (hGLUTs 1-4): more than 10 fold; difference in potency by the two assays (parasite growth vs L. mexicana PfHT overexpression) (PfHT [5]): 20 fold; IC50 (PfHT [4]; read-out: IC50 L. mexicana PfHT overexpression assay): 51 nM; IC50 (P. falciparum strain 3D7; 3D7, read-out: IC50 malaria parasite growth assay): 990 nM; IC50 (PfHT [2]; IC50 for PfHT-mediated glucose uptake): 2.6 µM
7 | CC(C)(C)C(=O)Nc1ccc(C(=O)Nc2cccc(-c3nc4ccccc4[nH]3)c2)cc1 [MMV665879] | 49 | 390 | 390 | – | 6.6 | 8.3 | selectively inhibit glucose uptake, but not proline transport | IC50 (PfHT [4]; [9]): 2700 nM
8 | Cc1ccc2nc(C)cc(Nc3cccc(C(F)(F)F)c3)c2c1 [MMV000326] | 49 | 344 | 344 | 1170 | 139 | 286 | – | –
